{
  "source": "patent US20140228287A1",
  "about": "“1-[(3-CYANO-PYRIDIN-2-YL)METHYL]-3-METHYL-7-(2-BUTYN-1-YL)-8-[3-(R)-AMINO-PIPERIDIN-1-YL]-AXANTHINE FOR THE TREATMENT OF A METABOLIC DISORDER OF A PREDOMINANTLY CARNIVOROUS NON-HUMAN ANIMAL” (BOEHRINGER INGELHEIM VETMEDICA GMBH, priority 2010, published 2014)",
  "key": {"[1]": {"biological_target": "T1, plasma DPP IV (Mus musculus, UniProt P28843)", "T1 construct": "from tissue; host or cells: mouse plasma", "T1 sequence (P28843 37-760 limits assumed)": "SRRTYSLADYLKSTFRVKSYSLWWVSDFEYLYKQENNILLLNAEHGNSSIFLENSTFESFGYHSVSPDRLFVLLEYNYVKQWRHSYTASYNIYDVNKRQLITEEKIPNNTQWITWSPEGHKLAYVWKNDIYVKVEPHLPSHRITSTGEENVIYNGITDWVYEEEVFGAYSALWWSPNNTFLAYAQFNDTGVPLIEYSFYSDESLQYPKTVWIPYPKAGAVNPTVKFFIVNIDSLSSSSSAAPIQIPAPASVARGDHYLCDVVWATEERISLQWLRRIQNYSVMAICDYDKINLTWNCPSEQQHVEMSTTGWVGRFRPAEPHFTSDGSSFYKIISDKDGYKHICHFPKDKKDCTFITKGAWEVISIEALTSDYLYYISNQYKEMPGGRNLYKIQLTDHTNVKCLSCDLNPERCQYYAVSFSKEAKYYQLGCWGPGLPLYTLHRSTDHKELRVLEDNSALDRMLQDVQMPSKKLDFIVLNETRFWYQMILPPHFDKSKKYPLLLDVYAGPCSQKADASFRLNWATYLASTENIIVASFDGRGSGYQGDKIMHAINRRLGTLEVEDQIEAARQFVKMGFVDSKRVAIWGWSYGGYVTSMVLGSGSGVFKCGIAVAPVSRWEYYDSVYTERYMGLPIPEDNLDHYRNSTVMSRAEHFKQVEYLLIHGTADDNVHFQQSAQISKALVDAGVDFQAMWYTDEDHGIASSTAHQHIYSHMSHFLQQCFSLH", "assay": "Inhibition of plasma DPP IV activity in vitro, mouse plasma", "assay_type": "biochemical", "protocol": "Studies were also conducted to assess the inhibitory effect of this compound on plasma DPP IV activity in several species."}, "[2]": {"biological_target": "T2, DPP IV (Felis catus, UniProt Q9N2I7)", "T2 construct": "Blood samples for the determination of this compound and DPP IV activity were collected; from tissue; host or cells: plasma of domestic short hair / purpose-bred cats dosed orally", "T2 sequence (Q9N2I7 38-765 limits assumed)": "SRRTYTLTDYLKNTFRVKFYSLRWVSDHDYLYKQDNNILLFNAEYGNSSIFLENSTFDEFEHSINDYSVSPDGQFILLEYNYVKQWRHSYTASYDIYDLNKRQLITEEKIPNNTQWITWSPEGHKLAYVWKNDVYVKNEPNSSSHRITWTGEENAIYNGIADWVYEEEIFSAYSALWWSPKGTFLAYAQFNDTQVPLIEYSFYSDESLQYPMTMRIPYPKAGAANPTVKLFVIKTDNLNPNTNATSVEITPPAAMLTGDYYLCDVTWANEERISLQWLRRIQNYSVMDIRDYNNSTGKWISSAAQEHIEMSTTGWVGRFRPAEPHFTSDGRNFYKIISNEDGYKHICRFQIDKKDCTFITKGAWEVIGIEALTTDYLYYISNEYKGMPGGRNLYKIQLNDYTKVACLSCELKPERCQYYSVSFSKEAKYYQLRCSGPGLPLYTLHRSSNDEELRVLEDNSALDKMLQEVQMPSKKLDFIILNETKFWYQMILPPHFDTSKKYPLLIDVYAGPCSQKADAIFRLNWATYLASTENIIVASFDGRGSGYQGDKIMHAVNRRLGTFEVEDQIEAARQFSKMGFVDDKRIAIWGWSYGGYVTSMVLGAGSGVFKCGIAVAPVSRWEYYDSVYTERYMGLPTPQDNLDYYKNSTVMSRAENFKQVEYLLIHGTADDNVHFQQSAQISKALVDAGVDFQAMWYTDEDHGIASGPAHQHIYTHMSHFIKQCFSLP", "assay": "Exploratory single dose PK/PD (0.3/1.0/3.0 mg/kg) in cats: DPP IV activity", "assay_type": "in vivo, cat", "details": "for response vs control in vivo at 0.3 mg/kg: 0.3 mg/kg single oral; for response vs control in vivo at 0.3 mg/kg / response vs control in vivo at 1 mg/kg / response vs control in vivo at 3 mg/kg: read-out: DPP IV activity in cat plasma (0 h = 100%); for response vs control in vivo at 1 mg/kg: 1 mg/kg single oral; for response vs control in vivo at 3 mg/kg: 3 mg/kg single oral", "protocol": "The aim of this first study was to investigate the PK/PD of 1-[(3-cyano-pyridin-2-yl)methyl]-3-methyl-7-(2-butyn-1-yl)-8-[3-(R)-amino-piperidin-1-yl]-xanthine in the cat after a single oral administration of 0, 0.3, 1.0 and 3.0 mg/kg body weight. For this purpose, twelve male clinically healthy adult domestic short hair cats with a body weight range of 3.5-4.5 kg were used. All animals were treated once orally with placebo or the respective 1-[(3-cyano-pyridin-2-yl)methyl]-3-methyl-7-(2-butyn-1-yl)-8-[3-(R)-amino-piperidin-1-yl]-xanthine monohydrochloride dose formulation. Blood samples for the determination of this compound and DPP IV activity were collected at 0 (pre-dose), 0.5, 1, 2, 4, 8, 24, 36, 48, 72 and 96 hours after treatment and the activity of DPP IV was determined like in example 6.\nThe resulting pharmacodynamic data from this experiment are summarized in following Table 3; the value of 0 h was set to 100% for each treatment."}, "[3]": {"tested_on": "diabetic ZDF rats", "assay": "Delayed OGTT in diabetic ZDF rats", "assay_type": "in vivo, rat", "details": "1 mg/kg 16 hours before the test", "protocol": "A delayed oral glucose tolerance test (OGTT) was applied to diabetic db/db mice and diabetic ZDF rats, as describes in the following.\nMale Zucker Diabetic Fatty (ZDF) rats (ZDF/Crl-Leprfa) were obtained from Charles River (USA). Animals were fed ad libitum with a special pelleted diet (Diet No. 2437 [containing 4.5% sucrose], Provimi Kliba, Switzerland) and had free access to water. Animals were housed in groups with a 12 h/12 h light/dark cycle (lights out between 6 p.m. and 6 a.m.). The rats were used for the experiments at 12 weeks of age.\nThe day before the OGTT, a blood sample from db/db mice or ZDF rats fasted for 2 hours was obtained by cutting the tip of the tail without anaesthesia and the animals were randomized for glucose (n=7 per group). The animals were fed again for 2 hours and then orally administered with either vehicle or 1-[(3-cyano-pyridin-2-yl)methyl]-3-methyl-7-(2-butyn-1-yl)-8-[3-(R)-amino-piperidin-1-yl]-xanthine monohydrochloride at doses between 0.3 and 3 mg/kg bw. A basal blood sample (pre-load) was obtained the next morning after overnight fasting for 16 hours by cutting the tip of the tail without anaesthesia. […] Additional blood samples were taken from the tip of the tail 30 min, 60 min, 90 min, 120 min, and 180 min after the glucose load, and blood glucose was measured. […]"}, "[4]": {"tested_on": "GLP-1", "assay": "Single dose study (1.0/5.0/10.0 mg/kg) in cats: GLP-1 after feeding", "assay_type": "in vivo, cat", "details": "single oral 1, 5, 10 mg/kg; feeding at 8 h after treatment", "protocol": "Twelve clinically healthy male adult domestic short hair cats with a body weight range of 3.5-4.7 kg were used in this study. All animals were treated orally once via a stomach tube. Blood samples for pharmacokinetic and pharmacodynamic (DPP IV activity) investigations were drawn at 0 h (i.e. prior to treatment), 30 min as well as 1, 2, 4, 8, 8.5, 9, 12, 24, 36, 48, 72, 84 and 96 h after treatment. Blood samples for pharmacodynamic (glucagon-like peptide 1 concentrations) investigations were drawn at −16 (i.e. prior to feeding), −15.5, −15 h as well as at 8 h (i.e. prior to feeding), 8.5 and 9 h after treatment."}, "[5]": {"biological_target": "alanine-amino-peptidase (Homo sapiens, UniProt P15144)", "sequence (P15144 whole entry)": "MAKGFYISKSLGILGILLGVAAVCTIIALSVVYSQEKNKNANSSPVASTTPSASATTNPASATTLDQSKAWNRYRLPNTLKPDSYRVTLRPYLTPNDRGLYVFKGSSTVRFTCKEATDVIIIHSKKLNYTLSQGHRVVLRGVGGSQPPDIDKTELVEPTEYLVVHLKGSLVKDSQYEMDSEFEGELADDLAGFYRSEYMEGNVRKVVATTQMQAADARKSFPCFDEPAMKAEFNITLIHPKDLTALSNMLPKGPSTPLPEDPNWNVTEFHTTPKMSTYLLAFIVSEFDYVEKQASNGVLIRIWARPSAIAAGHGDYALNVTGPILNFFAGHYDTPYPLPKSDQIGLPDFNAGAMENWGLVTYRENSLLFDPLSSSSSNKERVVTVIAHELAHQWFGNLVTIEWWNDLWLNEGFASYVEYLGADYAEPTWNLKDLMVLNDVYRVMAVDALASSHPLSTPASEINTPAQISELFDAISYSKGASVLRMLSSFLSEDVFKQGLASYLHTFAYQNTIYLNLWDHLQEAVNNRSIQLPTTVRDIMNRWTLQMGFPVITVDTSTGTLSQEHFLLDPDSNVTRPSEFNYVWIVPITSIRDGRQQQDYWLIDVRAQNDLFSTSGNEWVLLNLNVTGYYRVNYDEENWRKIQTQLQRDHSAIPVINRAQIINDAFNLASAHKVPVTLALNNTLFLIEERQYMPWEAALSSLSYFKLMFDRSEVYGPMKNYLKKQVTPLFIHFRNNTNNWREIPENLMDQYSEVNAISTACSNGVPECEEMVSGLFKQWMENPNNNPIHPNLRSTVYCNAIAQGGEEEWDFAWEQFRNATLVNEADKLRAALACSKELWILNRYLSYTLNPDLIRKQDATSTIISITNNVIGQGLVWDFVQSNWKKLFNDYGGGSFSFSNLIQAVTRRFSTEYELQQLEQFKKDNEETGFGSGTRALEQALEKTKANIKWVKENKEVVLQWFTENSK", "assay": "In vitro selectivity, human proteases: alanine-amino-peptidase", "assay_type": "biochemical", "details": "up to 100 μM", "from_the_text": "(§1) In order to determine the in vitro selectivity of 1-[(3-cyano-pyridin-2-yl)methyl]-3-methyl-7-(2-butyn-1-yl)-8-[3-(R)-amino-piperidin-1-yl]-xanthine, the ability of this compound to inhibit a number of human proteases was investigated as described in Thomas et al. (2008), J. Pharmacol. Exp. Ther., vol. 325, p. 175-182, chapter In vitro DPP-4 Inhibition Assay, p. 176."}, "[6]": {"tested_on": "amino-peptidase P", "assay": "In vitro selectivity, human proteases: amino-peptidase P", "assay_type": "biochemical", "details": "up to 100 μM", "from_the_text": "as §1"}},
  "note": "Where a name gives a salt, the structure may show the parent alone. Read-outs that look alike come from different tables or passages of the source.",
  "data": [
    {"compound": "CC#CCn1c(N2CCC[C@@H](N)C2)nc2c1c(=O)n(Cc1ncccc1C#N)c(=O)n2C", "note": "[1-[(3-cyano-pyridin-2-yl)methyl]-3-methyl-7-(2-butyn-1-yl)-8-[3-(R)-amino-piperidin-1-yl]-xanthine monohydrochloride]", "values": [
      {"measurement": "IC50", "setting": "[1]", "value": "~1.7", "unit": "nM"},
      {"measurement": "response vs control in vivo at 0.3 mg/kg", "setting": "[2]; 0.5 h", "value": 15, "unit": "%"},
      {"measurement": "response vs control in vivo at 0.3 mg/kg", "setting": "[2]; 1 h", "value": 13, "unit": "%"},
      {"measurement": "response vs control in vivo at 0.3 mg/kg", "setting": "[2]; 2 h", "value": 13, "unit": "%"},
      {"measurement": "response vs control in vivo at 0.3 mg/kg", "setting": "[2]; 4 h", "value": 15, "unit": "%"},
      {"measurement": "response vs control in vivo at 0.3 mg/kg", "setting": "[2]; 8 h", "value": 19, "unit": "%"},
      {"measurement": "response vs control in vivo at 0.3 mg/kg", "setting": "[2]; 24 h", "value": 54, "unit": "%"},
      {"measurement": "response vs control in vivo at 0.3 mg/kg", "setting": "[2]; 36 h", "value": 84, "unit": "%"},
      {"measurement": "response vs control in vivo at 0.3 mg/kg", "setting": "[2]; 48 h", "value": 93, "unit": "%"},
      {"measurement": "response vs control in vivo at 0.3 mg/kg", "setting": "[2]; 72 h", "value": 95, "unit": "%"},
      {"measurement": "response vs control in vivo at 0.3 mg/kg", "setting": "[2]; 96 h", "value": 95, "unit": "%"},
      {"measurement": "response vs control in vivo at 1 mg/kg", "setting": "[2]; 0.5 h", "value": 11, "unit": "%"},
      {"measurement": "response vs control in vivo at 1 mg/kg", "setting": "[2]; 1 h", "value": 11, "unit": "%"},
      {"measurement": "response vs control in vivo at 1 mg/kg", "setting": "[2]; 2 h", "value": 12, "unit": "%"},
      {"measurement": "response vs control in vivo at 1 mg/kg", "setting": "[2]; 4 h", "value": 12, "unit": "%"},
      {"measurement": "response vs control in vivo at 1 mg/kg", "setting": "[2]; 8 h", "value": 15, "unit": "%"},
      {"measurement": "response vs control in vivo at 1 mg/kg", "setting": "[2]; 24 h", "value": 42, "unit": "%"},
      {"measurement": "response vs control in vivo at 1 mg/kg", "setting": "[2]; 36 h", "value": 67, "unit": "%"},
      {"measurement": "response vs control in vivo at 1 mg/kg", "setting": "[2]; 48 h", "value": 80, "unit": "%"},
      {"measurement": "response vs control in vivo at 1 mg/kg", "setting": "[2]; 72 h", "value": 91, "unit": "%"},
      {"measurement": "response vs control in vivo at 1 mg/kg", "setting": "[2]; 96 h", "value": 92, "unit": "%"},
      {"measurement": "response vs control in vivo at 3 mg/kg", "setting": "[2]; 0.5 h", "value": 16, "unit": "%"},
      {"measurement": "response vs control in vivo at 3 mg/kg", "setting": "[2]; 1 h", "value": 13, "unit": "%"},
      {"measurement": "response vs control in vivo at 3 mg/kg", "setting": "[2]; 2 h", "value": 12, "unit": "%"},
      {"measurement": "response vs control in vivo at 3 mg/kg", "setting": "[2]; 4 h", "value": 14, "unit": "%"},
      {"measurement": "response vs control in vivo at 3 mg/kg", "setting": "[2]; 8 h", "value": 17, "unit": "%"},
      {"measurement": "response vs control in vivo at 3 mg/kg", "setting": "[2]; 24 h", "value": 49, "unit": "%"},
      {"measurement": "response vs control in vivo at 3 mg/kg", "setting": "[2]; 36 h", "value": 66, "unit": "%"},
      {"measurement": "response vs control in vivo at 3 mg/kg", "setting": "[2]; 48 h", "value": 85, "unit": "%"},
      {"measurement": "response vs control in vivo at 3 mg/kg", "setting": "[2]; 72 h", "value": 101, "unit": "%"},
      {"measurement": "response vs control in vivo at 3 mg/kg", "setting": "[2]; 96 h", "value": 95, "unit": "%"},
      {"measurement": "inhibition of DPP IV", "setting": "[2]; all doses (0.3, 1.0, 3.0 mg/kg single oral)", "value": "more than 80%"},
      {"measurement": "suppression of glucose excursion in OGTT", "setting": "[3]", "value": 35, "unit": "%"},
      {"measurement": "mean GLP-1 concentration after feeding", "setting": "[4]", "value": "an increase of the mean GLP-1 concentration was observed after feeding"},
      {"measurement": "inhibitory effect on alanine-amino-peptidase", "setting": "[5]", "value": "did not exert any inhibitory effect"},
      {"measurement": "inhibitory effect on amino-peptidase P", "setting": "[6]", "value": "did not exert any inhibitory effect"}
    ]}
  ]
}
